Laboratory results: US8445457B2, “Oral pharmaceutical solutions containing telbivudine” (Novartis AG, priority 2007, dated 2013)

Assay: Pre-formulation telbivudine stability versus pH at elevated temperature
Format: physicochemical
Settings: investigated pH 2-9, 50° C., from assay and thymine content
Procedure: During pre-formulation, telbivudine stability is investigated within a range of pH from 2-9, at elevated temperature 50° C. […] The pH of the oral solution is a highly relevant parameter, due to the influence pH on the retardation of microbial growth in the solution during storage.

- pH range optimal for drug substance stability: 3-9
SMILES: Cc1cn([C@@H]2C[C@@H](O)[C@H](CO)O2)c(=O)[nH]c1=O [telbivudine, β-L-thymidine/2′-deoxy-L-thymidine]
